In patent publication US11306124B2, “Agonist agents of CD47 inducing programmed cell death and their use in the treatments of diseases associated with defects in programmed cell death” (SORBONNE UNIVERSITE, priority 2016, dated 2022):
Read-outs that look alike come from different tables or passages of the source. Residues, ends and D or L forms follow the SMILES beside them.

Test system: HCT-116 cells
Type: cell-based, human
Details: human, 2 h
Method: 2.2.2. Cell Death Analysis by Flow Cytometry
To detect possible apoptotic processes, cells were seeded in 35 mm dishes and cultured in media containing each tested cyclic peptide for 2 hours following procedure A or B.
Procedure B: Peptides were incubated for 2 hours on HCT-116 cells. Superkiller Trail (ALX-201-115C-010) was used as a positive pro-apoptotic control. Cells were analyzed by cytofluorometry using FITC Annexin V apoptosis detection kit with 7-AAD from BIOLEGEND (BLE640922).

CSCC[C@@H]1NC(=O)[C@@H](C(C)C)NC(=O)[C@H](C(C)C)NC(=O)[C@H](Cc2ccc(O)cc2)NC(=O)[C@H](Cc2ccccc2)NC(=O)[C@H](CCCNC(=N)N)N(C)C(=O)[C@H](CO)NC(=O)[C@H](CO)NC(=O)[C@H](CC(N)=O)NC(=O)[C@H](C(C)C)NC(=O)[C@H](C(C)C)NC(=O)[C@H](CCCCN)NC(=O)[C@H](C(C)C)NC(=O)[C@H](CO)NC(=O)[C@H](CC(C)C)NC(=O)CNC(=O)[C@@H]2CCCN2C(=O)[C@H]2CCCN2C(=O)[C@H](CCCCN)NC(=O)[C@H](Cc2c[nH]c3ccccc23)NC1=O (relative stereo) [PKTD10-RNMe, —S—R*—F—Y—V—V—M—W—K—p—P—G—L—S—V—K—V—V—N—S— R* = RNMe]
Viable, Mean (%) (12.5 μM): 91.72% | Viable, Mean (%) (25 μM): 91.10% | Viable, Mean (%) (50 μM): 76.73%

CCCC[C@@H]1NC(=O)[C@@H](C(C)C)NC(=O)[C@H](C(C)C)NC(=O)[C@H](Cc2ccc(O)cc2)NC(=O)[C@H](Cc2ccccc2)NC(=O)[C@H](CCCNC(=N)N)N(C)C(=O)[C@H](CO)NC(=O)[C@H](CO)NC(=O)[C@H](CC(N)=O)NC(=O)[C@H](C(C)C)NC(=O)[C@H](C(C)C)NC(=O)[C@H](CCCCN)NC(=O)[C@H](C(C)C)NC(=O)[C@H](CO)NC(=O)[C@H](CC(C)C)NC(=O)CNC(=O)[C@@H]2CCCN2C(=O)[C@H]2CCCN2C(=O)[C@H](CCCCN)NC(=O)[C@H](Cc2c[nH]c3ccccc23)NC1=O (relative stereo) [PKTD10-X-RNMe, —S—R*—F—Y—V—V—X—W—K—p—P—G—L—S—V—K—V—V—N—S— R* = RNMe and X = NLe]
Viable, Mean (%) (12.5 μM): 82.76% | Viable, Mean (%) (25 μM): 75.17% | Viable, Mean (%) (50 μM): 48.31%

CSCC[C@@H]1NC(=O)[C@H](C(C)C)NC(=O)[C@H](C(C)C)NC(=O)[C@H](Cc2ccc(O)cc2)NC(=O)[C@H](Cc2ccccc2)NC(=O)[C@H](CCCNC(=N)N)N(C)C(=O)[C@H](CO)NC(=O)[C@H](CO)NC(=O)[C@H](CC(N)=O)NC(=O)[C@H](C(C)C)NC(=O)[C@H](C(C)C)NC(=O)[C@H](CCCCN)NC(=O)[C@H](C(C)C)NC(=O)[C@H](CO)NC(=O)[C@H](CC(C)C)NC(=O)CNC(=O)[C@H](CO)NC(=O)[C@@H]2CCCN2C(=O)[C@H]2CCCN2C(=O)[C@H](CCC(N)=O)NC(=O)[C@H](CCCCN)NC(=O)[C@H](Cc2c[nH]c3ccccc23)NC1=O (relative stereo) [PKTD11RNMe, —S—R*—F—Y—V—V—M—W—K—Q—p—P—S—G—L—S—V—K—V—V—N—S— R* = RNMe]
Viable, Mean (%) (12.5 μM): 88.71% | Viable, Mean (%) (25 μM): 86.38% | Viable, Mean (%) (50 μM): 67.03%

CC(C)C[C@@H]1NC(=O)[C@@H]2CCCN2C(=O)[C@H]2CCCN2C(=O)[C@H](Cc2c[nH]c3ccccc23)NC(=O)[C@H](CCCCN)NC(=O)[C@H](C(C)C)NC(=O)[C@H](C(C)C)NC(=O)[C@H](Cc2ccccc2)NC(=O)[C@H](Cc2ccccc2)NC(=O)[C@H](C(C)C)NC(=O)[C@H](C(C)C)NC(=O)[C@H](CCCCN)NC(=O)[C@H](C(C)C)NC(=O)[C@H](CO)NC1=O [PKD10-FF, —F—F—V—V—K—W—p—P—L—S—V—K—V—V—] (HELM PEPTIDE1{F.F.V.V.K.W.[dP].P.L.S.V.K.V.V}$PEPTIDE1,PEPTIDE1,1:R1-14:R2$$$V2.0)
Viable, Mean (%) (12.5 μM): 25.225% | Viable, Mean (%) (25 μM): 30.445% | Viable, Mean (%) (50 μM): 31.97%
